Experimental data from patent US9533982B2, “Substituted bicyclic heteroaryl carboxamide analogs as mGluR5 negative allosteric modulators” (Vanderbilt University, priority 2014, dated 2017).

Key:
rat mGluR5 = target: T1, rat mGluR5 (Rattus norvegicus, UniProt P31424); experiment: mGluR5 activity, cell-based Ca2+ fluorescence (FDSS) assay in human embryonic kidney cells transfected with rat mGluR5; conditions: HEK cells transfected with rat mGluR5; antagonism of EC80 glutamate response; single experiment or average of two where no error is given
T1 construct: expressed in transfected cells
Protocol: Human embryonic kidney (HEK) cells transfected with rat or human mGluR5 were plated in clear bottom assay plates for assay in a Functional Drug Screening System (FDSS). The cells were loaded with a Ca^2+-sensitive fluorescent dye (e.g., Fluo-4), and the plates were washed and placed in the FDSS instrument. Test compound was applied to cells 3 seconds after baseline readings were taken. Cells were incubated with the test compounds for 140 seconds and then stimulated with an EC20 concentration of an mGluR5 agonist (e.g., glutamate, 3,5-dihydroxyphenylglycine, or quisqualate); 60-80 seconds later an EC80 concentration of agonist was added and readings taken for an additional 40 seconds. Data were collected at 1 Hz. […] Concentration response curves were generated using a four parameter logistical equation.
The above described assay was operated in two modes. In the first mode (utilizing a triple add protocol), a range of concentrations of the present compounds were added to cells, followed by two single fixed concentrations of agonist (EC20 followed by EC80). If a compound acted as a potentiator, an EC50 value for potentiation of the EC20 response and a maximum extent of potentiation by the compound at this concentration of agonist was determined by non-linear curve fitting. If a compound acted as an antagonist, an IC50 value for antagonism of the EC80 response and a maximum extent of antagonism by the compound at this concentration of agonist was determined by non-linear curve fitting. In the second mode (utilizing a double add protocol), several fixed concentrations of the present compounds were added to various wells on a plate, followed by a range of concentrations of agonist for each concentration of present compound; the EC50 values for the agonist at each concentration of compound were determined by nonlinear curve fitting. A decrease in the EC50 value of the agonist with increasing concentrations of the present compounds (a leftward shift of the agonist concentration-response curve) is an indication of the degree of mGluR5 positive allosteric modulation at a given concentration of the present compound. An increase in the EC50 value of the agonist with increasing concentrations of the present compounds (a rightward shift of the agonist concentration response curve) is an indication of the degree of mGluR5 antagonism at a given concentration of the present compound. The second mode also indicates whether the present compounds also affect the maximum response to mGluR5 to agonists.
The mGluR5 activity was determined using the metabotropic glutamate receptor activity assays in human embryonic kidney cells as described herein, wherein the human embryonic kidney cells were transfected with rat mGluR5. The mGluR5 activity data for some compounds are shown as the average of at least three experiments with the standard error in these cases. If no error is indicated for the mGluR5 activity, the values given represent the results from a single experiment or the average of two experiments. The compounds in Table 1 were synthesized with methods identical or analogous to those shown herein. The requisite starting materials were commercially available, described in the literature, or readily synthesized by one skilled in the art of organic synthesis.

cytochrome P450 1A2 = target: T2, cytochrome P450 1A2 (Homo sapiens, UniProt P05177); conditions: cited from earlier work
T2 sequence (P05177 1-516): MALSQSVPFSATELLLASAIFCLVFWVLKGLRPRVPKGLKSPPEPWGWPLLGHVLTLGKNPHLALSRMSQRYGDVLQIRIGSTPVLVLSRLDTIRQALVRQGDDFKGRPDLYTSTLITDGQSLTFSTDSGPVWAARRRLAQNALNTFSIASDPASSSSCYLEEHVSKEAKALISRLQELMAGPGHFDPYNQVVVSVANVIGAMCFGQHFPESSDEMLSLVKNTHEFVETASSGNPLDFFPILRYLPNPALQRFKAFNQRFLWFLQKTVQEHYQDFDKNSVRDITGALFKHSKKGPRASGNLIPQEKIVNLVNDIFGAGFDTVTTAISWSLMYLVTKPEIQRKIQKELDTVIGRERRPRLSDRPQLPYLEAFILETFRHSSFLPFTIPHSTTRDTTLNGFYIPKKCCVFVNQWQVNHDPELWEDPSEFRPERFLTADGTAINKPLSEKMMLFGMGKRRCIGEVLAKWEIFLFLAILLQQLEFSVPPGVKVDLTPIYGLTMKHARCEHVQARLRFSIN

[1] = intravenous administration to rhesus monkeys; cited from earlier work
[2] = tested on: marble burying activity in mice; conditions: literature reports; cited from earlier work
[3] = tested on: N-methyl-D-aspartate (NMDA) receptor; conditions: at higher concentrations; cited from earlier work
mGluR4 = mGluR4 (Homo sapiens, UniProt Q14833); conditions: cited from earlier work
Chain of mGluR4 (Q14833 33-912): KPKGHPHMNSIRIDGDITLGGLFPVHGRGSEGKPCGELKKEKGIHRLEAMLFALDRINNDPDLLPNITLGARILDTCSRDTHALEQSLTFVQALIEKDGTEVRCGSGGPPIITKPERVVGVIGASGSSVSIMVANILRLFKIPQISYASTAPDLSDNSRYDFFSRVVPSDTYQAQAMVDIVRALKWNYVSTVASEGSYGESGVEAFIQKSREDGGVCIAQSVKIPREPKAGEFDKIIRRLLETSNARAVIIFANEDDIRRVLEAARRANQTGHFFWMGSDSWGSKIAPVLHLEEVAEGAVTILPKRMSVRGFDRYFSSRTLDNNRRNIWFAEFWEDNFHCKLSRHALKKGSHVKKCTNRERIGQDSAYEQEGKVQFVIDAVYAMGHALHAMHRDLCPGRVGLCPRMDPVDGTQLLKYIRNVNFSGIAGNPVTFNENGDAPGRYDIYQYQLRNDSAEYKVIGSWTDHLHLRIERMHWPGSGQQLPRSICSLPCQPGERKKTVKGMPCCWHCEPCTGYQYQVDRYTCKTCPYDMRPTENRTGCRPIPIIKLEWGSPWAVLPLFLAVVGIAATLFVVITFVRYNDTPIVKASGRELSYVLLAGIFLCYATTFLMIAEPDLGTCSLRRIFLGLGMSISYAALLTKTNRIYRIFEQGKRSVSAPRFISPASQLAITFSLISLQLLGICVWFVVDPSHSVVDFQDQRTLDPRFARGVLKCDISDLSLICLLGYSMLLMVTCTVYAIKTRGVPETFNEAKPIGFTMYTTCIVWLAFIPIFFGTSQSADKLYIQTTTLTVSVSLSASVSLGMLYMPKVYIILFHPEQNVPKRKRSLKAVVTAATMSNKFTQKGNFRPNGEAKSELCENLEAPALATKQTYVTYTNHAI

T1 sequence (P31424 21-1171 isoform P31424-2 limits assumed): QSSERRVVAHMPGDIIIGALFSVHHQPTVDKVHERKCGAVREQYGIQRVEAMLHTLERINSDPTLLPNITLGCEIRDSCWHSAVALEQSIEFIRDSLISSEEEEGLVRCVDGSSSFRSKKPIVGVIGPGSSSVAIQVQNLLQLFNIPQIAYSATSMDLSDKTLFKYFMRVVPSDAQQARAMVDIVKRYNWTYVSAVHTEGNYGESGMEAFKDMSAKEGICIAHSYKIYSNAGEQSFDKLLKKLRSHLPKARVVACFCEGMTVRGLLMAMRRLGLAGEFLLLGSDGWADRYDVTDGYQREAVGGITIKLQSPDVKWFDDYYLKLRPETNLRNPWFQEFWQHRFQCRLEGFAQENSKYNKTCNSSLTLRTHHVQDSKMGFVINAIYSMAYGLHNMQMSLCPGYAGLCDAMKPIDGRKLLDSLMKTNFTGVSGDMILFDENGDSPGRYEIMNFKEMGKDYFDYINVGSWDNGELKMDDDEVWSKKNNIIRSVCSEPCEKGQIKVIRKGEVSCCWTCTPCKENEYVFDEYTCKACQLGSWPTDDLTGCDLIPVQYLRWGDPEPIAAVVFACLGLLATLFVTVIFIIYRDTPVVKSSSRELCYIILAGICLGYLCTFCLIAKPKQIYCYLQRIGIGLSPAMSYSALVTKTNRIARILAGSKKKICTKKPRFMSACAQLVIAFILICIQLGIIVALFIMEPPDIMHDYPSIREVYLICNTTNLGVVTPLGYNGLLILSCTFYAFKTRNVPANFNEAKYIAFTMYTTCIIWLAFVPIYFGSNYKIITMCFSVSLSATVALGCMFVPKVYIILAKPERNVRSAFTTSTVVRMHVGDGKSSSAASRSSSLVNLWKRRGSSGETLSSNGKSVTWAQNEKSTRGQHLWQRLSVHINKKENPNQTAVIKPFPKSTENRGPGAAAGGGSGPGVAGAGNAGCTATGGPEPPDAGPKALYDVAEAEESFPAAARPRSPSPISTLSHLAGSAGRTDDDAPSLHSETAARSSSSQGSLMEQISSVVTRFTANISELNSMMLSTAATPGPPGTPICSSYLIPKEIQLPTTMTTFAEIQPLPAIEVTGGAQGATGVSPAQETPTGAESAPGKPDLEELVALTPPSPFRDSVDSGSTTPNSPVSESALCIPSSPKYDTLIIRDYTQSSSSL

SMILES	IC50 (rat mGluR5) [nM]	further results
O=C(Nc1ccc(F)cn1)c1cc(C(F)c2cncnc2)cc2cccnc12 (stereo not drawn)	83	
Cc1csc(NC(=O)c2cc(C(F)c3cncnc3)cc3cccnc23)n1 (stereo not drawn)	127	
Cc1csc(NC(=O)c2cc(C(=O)c3cncnc3)cc3nccnc23)n1	380	
Cc1nc(C#Cc2cccnc2)cs1 [MTEP, 3-[(2-methyl-1,3-thiazol-4-yl)ethynyl]pyridine]		inhibition of cytochrome P450 1A2 (cytochrome P450 1A2): potent inhibitor; clearance [1]: efficiently cleared
O=C(c1cncnc1)c1cc(C(=O)Nc2ccc(Cl)cn2)c2nccnc2c1	176	
COC(c1cncnc1)c1cc(C(=O)Nc2ccc(F)cn2)c2ncccc2c1 (stereo not drawn)	890	
Cc1csc(NC(=O)c2cc(C(=O)c3cncnc3)cc3cccnc23)n1	73	
Cc1cccc(NC(=O)c2cc(C(=O)c3cncnc3)cc3cccnc23)n1	163	
O=C(c1cncnc1)c1cc(C(=O)Nc2ccc(Cl)cn2)c2ncccc2c1	148	
O=C(c1cncc(F)c1)c1cc(C(=O)Nc2cccc(Cl)n2)c2ncccc2c1	> 30000	
O=C(c1cncnc1)c1cc(C(=O)Nc2cccc(F)n2)c2ncccc2c1	645	
Cc1csc(NC(=O)c2cc(C(=O)c3cncc(F)c3)cc3cccnc23)n1	444	
O=C(c1cncnc1)c1cc(C(=O)Nc2ccc(F)cn2)c2ncccc2c1	106	
CC(c1cncnc1)c1cc(C(=O)Nc2ccc(F)cn2)c2ncccc2c1 (stereo not drawn)	540	
Cc1cccc(NC(=O)c2cc(C(=O)c3cncnc3)cc3nccnc23)n1	3090	
O=C(c1cncnc1)c1cc(C(=O)Nc2cccc(Cl)n2)c2ncccc2c1	696	
Cc1csc(NC(=O)c2cc(C(C)c3cncnc3)cc3cccnc23)n1 (stereo not drawn)	258	
Cc1csc(NC(=O)c2cc(C(O)c3cncnc3)cc3cccnc23)n1 (stereo not drawn)	> 10000	
Cc1cccc(NC(=O)c2cc(C(=O)c3cncc(F)c3)cc3cccnc23)n1	1620	
CN1CC(=O)N=C1NC(=O)Nc1cccc(Cl)c1 [fenobam, 1-(3-chlorophenyl)-3-(1-methyl-4-oxo-4,5-dihydro-1H-imidazol-2-yl)urea]		effect in the marble burying model [2]: effective
O=C(Nc1ccc(F)cn1)c1cc(C(F)(F)c2cncnc2)cc2cccnc12	109	
O=C(c1cncc(F)c1)c1cc(C(=O)Nc2ccc(Cl)cn2)c2ncccc2c1	> 30000	
Cc1cccc(C#Cc2ccccc2)n1 [MPEP, 2-methyl-6-(phenylethynyl)pyridine]		inhibition of NMDA receptor activity [3]: directly inhibit; modulation of mGluR4 (mGluR4): positive allosteric modulator; effect in the marble burying model [2]: effective
COC(c1cncnc1)c1cc(C(=O)Nc2nc(C)cs2)c2ncccc2c1 (stereo not drawn)	552	
Cc1csc(NC(=O)c2cc(C(O)c3cncc(F)c3)cc3cccnc23)n1 (stereo not drawn)	> 30000	
O=C(Nc1ccc(F)cn1)c1cc(C(F)c2cncnc2)cc2nccnc12 (stereo not drawn)	> 10000	
O=C(c1cncnc1)c1cc(C(=O)Nc2ccc(F)cn2)c2nccnc2c1	> 10000	
